One assay addresses T1, KRAS G12D (Homo sapiens, UniProt P01116, G12D).
T1 construct: aa1-188 KRAS WT, HRAS WT, NRAS WT, or KRAS containing the G12D
In words: HTRF nucleotide exchange assay, KRAS G12D. It counts as biochemical. Particulars: class symbols; for IC50: HTRF nucleotide exchange assay (NEA). Here is the method: (§1) HTRF Nucleotide Exchange Assay Method
(§2) The capacity of compounds to bind KRAS G12D, other KRAS mutants and wildtype RAS isoforms was quantified using a HTRF nucleotide exchange assay. Recombinant human RAS protein (2 nM; aa1-188 KRAS WT, HRAS WT, NRAS WT, or KRAS containing the G12D, G13D or Q61H amino acid substitutions, or 4 nM KRAS; aa1-188 containing the G12V, G12C, G12A or G12S amino acid substitution, an N-terminal 6× His-tag and leader sequence), and 2 nM Europium-labeled anti-6× His antibody were mixed in assay buffer (10 mM HEPES pH 7.3, 150 mM NaCl, 5 mM MgCl2, 0.05% BSA, 0.0025% NP-40 and 100 mM KF) with various concentrations of compound in a 384-well plate and a volume of 5 μL. After a 60-minute incubation at room temperature, 5 μl of 200 nM EDA-GTP-DY647P1 (diluted in assay buffer) was added to the plate. Following 30-minute incubation at room temperature, time-resolved fluorescence was measured on a PerkinElmer Envision plate reader. DMSO (0.3%) and unlabeled GDP (1 μM) or equivalent tool compound were used to generate the Max and Min assay signals, respectively. Data was analysed using a four-parameter logistic model to calculate IC50 values, with at least two independent replicates were performed for each compound. The results are presented as IC50s in Table 29 where “A” corresponds to an IC50 ≤10 nM, “B” to an IC50 >10 nM up to 100 nM, “C” is >100 nM up to 10 μM, “D” represents <49% inhibition at 10 μM and ND=not determined: […]

A further assay has as its target T2, KRAS WT (Homo sapiens, UniProt P01116).
T2 construct: aa1-188 KRAS WT
Nature of the assay: HTRF nucleotide exchange assay, KRAS WT. Format: biochemical. The conditions noted are these: class symbols; for IC50: HTRF nucleotide exchange assay (NEA). The protocol: as §1, §2
(In general: Time-resolved FRET reads energy transfer from a long-lived donor to a nearby acceptor.)

The structures appear in SMILES notation.

`Cn1ncc2c3c(N4CCCOCC4)nc(OC[C@@]45CCCN4C[C@H](F)C5)nc3cc(-c3cc(O)cc4ccccc34)c21` [Example 48, 4-[3-methyl-9-(1,4-oxazepan-4-yl)-7-[[(2R,8S)-2-fluoro-1,2,3,5,6,7-hexahydropyrrolizin-8-yl]methoxy]pyrazolo[4,3-f]quinazolin-4-yl]naphthalen-2-ol]: at KRAS G12D, the “KRAS^G12D NEA” value is recorded as “D (<49% inhibition at 10 μM)”. Moreover, the “KRAS^WT NEA” value on KRAS WT was “D (<49% inhibition at 10 μM)”.
The IC50 is the midpoint of a concentration-inhibition curve. A higher IC50 goes with a need for much substance. As to `CCc1c(F)ccc2cc(O)cc(-c3cc4nc(OCC56CCCN5CCC6)nc(N5CCCC(C)(O)C5)c4c4cn(C)nc34)c12` (stereo not shown) [Example 28, 1-[4-(8-ethyl-7-fluoro-3-hydroxy-1-naphthyl)-7-(1,2,3,5,6,7-hexahydropyrrolizin-8-ylmethoxy)-2-methyl-pyrazolo[4,3-f]quinazolin-9-yl]-3-methyl-piperidin-3-ol], the IC50 against KRAS G12D and on KRAS WT was at most 10 nM each time.
For the compound `CCC1CCCc2cc(O)cc(-c3cc4nc(OC[C@@]56CCCN5C[C@H](F)C6)nc(N5CCCOCC5)c4c4cn(C)nc34)c21` (stereo partly drawn) [Example 66, 1-ethyl-8-[2-methyl-9-(1,4-oxazepan-4-yl)-7-[[(2R,8S)-2-fluoro-1,2,3,5,6,7-hexahydropyrrolizin-8-yl]methoxy]pyrazolo[4,3-f]quinazolin-4-yl]tetralin-6-ol], the 50% inhibitory concentration (IC50) against KRAS G12D and on KRAS WT was 10 to 100 nM throughout.
For the compound `Cn1cc2c(n1)c(-c1ccc(F)c3sc(N)c(C#N)c13)cc1nc(OC[C@@]34CCCN3C[C@H](F)C4)nc(N3C4CCC3CN(CCCO)C4)c12` [Example 90, 2-amino-7-fluoro-4-[7-[[(2R,8S)-2-fluoro-1,2,3,5,6,7-hexahydropyrrolizin-8-yl]methoxy]-9-[3-(3-hydroxypropyl)-3,8-diazabicyclo[3.2.1]octan-8-yl]-2-methyl-pyrazolo[4,3-f]quinazolin-4-yl]benzothiophene-3-carbonitrile], the “KRAS^G12D NEA” value on KRAS G12D is recorded as “D (<49% inhibition at 10 μM)”. For the same compound, on KRAS WT, the “KRAS^WT NEA” value is listed as “D (<49% inhibition at 10 μM)”.
On to `CCc1c(F)ccc2cc(O)cc(-c3cc4nc(OC[C@@]56CCCN5C[C@H](F)C6)nc(N5CCCC(C)(C#N)C5)c4c4cn(C)nc34)c12` (stereo partly drawn) [Example 132, 1-[4-(8-ethyl-7-fluoro-3-hydroxy-1-naphthyl)-2-methyl-7-[[(2R,8S)-2-fluoro-1,2,3,5,6,7-hexahydropyrrolizin-8-yl]methoxy]pyrazolo[4,3-f]quinazolin-9-yl]-3-methyl-piperidine-3-carbonitrile], for which the half-maximal inhibitory concentration (IC50) at KRAS G12D and against KRAS WT was 100 to 10000 nM each time.
For the compound `CCc1c(F)ccc2cc(O)cc(-c3c(F)c4nc(OCC5(C#N)CCOC5)nc(N5CCCNC(=O)C5)c4c4cn(C)nc34)c12` (stereo not shown) [Example 244, 3-[[4-(8-ethyl-7-fluoro-3-hydroxy-1-naphthyl)-5-fluoro-2-methyl-9-(3-oxo-1,4-diazepan-1-yl)pyrazolo[4,3-f]quinazolin-7-yl]oxymethyl]tetrahydrofuran-3-carbonitrile], the IC50 against KRAS G12D and at KRAS WT was 100 to 10000 nM each time.
In the case of `CCc1c(F)ccc2cc(O)cc(-c3cc4nc(OC[C@@]56CCCN5C[C@H](F)C6)nc(N5CCCn6nc(CO)cc6C5)c4c4cn(C)nc34)c12` [Example 94, 5-ethyl-6-fluoro-4-[9-[2-(hydroxymethyl)-4,6,7,8-tetrahydropyrazolo[1,5-a][1,4]diazepin-5-yl]-2-methyl-7-[[(2R,8S)-2-fluoro-1,2,3,5,6,7-hexahydropyrrolizin-8-yl]methoxy]pyrazolo[4,3-f]quinazolin-4-yl]naphthalen-2-ol], the IC50 on KRAS G12D and at KRAS WT was at most 10 nM each time.
On to `CCc1c(F)ccc2cc(O)cc(-c3cc4nc(OC[C@@]56CCCN5C[C@H](F)C6)nc(N5CCCn6nccc6C5)c4c4cn(C)nc34)c12` [Example 59, 5-ethyl-6-fluoro-4-[2-methyl-7-[[(2R,8S)-2-fluoro-1,2,3,5,6,7-hexahydropyrrolizin-8-yl]methoxy]-9-(4,6,7,8-tetrahydropyrazolo[1,5-a][1,4]diazepin-5-yl)pyrazolo[4,3-f]quinazolin-4-yl]naphthalen-2-ol], for which the values for the half-maximal inhibitory concentration (IC50) against KRAS G12D and at KRAS WT were at most 10 nM and 10 to 100 nM, respectively.
`CCc1c(F)ccc2cc(O)cc(-c3cc4nc(OC[C@@]56CCCN5C[C@H](F)C6)nc(N5CCCn6nc(C(=O)N(C)C)cc6C5)c4c4cn(C)nc34)c12` [Example 22, 5-[4-(8-ethyl-7-fluoro-3-hydroxy-1-naphthyl)-2-methyl-7-[[(2R,8S)-2-fluoro-1,2,3,5,6,7-hexahydropyrrolizin-8-yl]methoxy]pyrazolo[4,3-f]quinazolin-9-yl]-N,N-dimethyl-4,6,7,8-tetrahydropyrazolo[1,5-a][1,4-]diazepine-2-carboxamide]: the concentration for half-maximal inhibition (IC50) on KRAS G12D and against KRAS WT was at most 10 nM each time.
On to `Cn1cc2c(n1)c(-c1ncc(F)c3sc(N)c(C#N)c13)cc1nc(OC[C@@]34CCCN3C[C@H](F)C4)nc(N3CCOCC(C)(O)C3)c12` (stereo partly drawn) [Example 107, 2-amino-7-fluoro-4-[7-[[(2R,8S)-2-fluoro-1,2,3,5,6,7-hexahydropyrrolizin-8-yl]methoxy]-9-(6-hydroxy-6-methyl-1,4-oxazepan-4-yl)-2-methyl-pyrazolo[4,3-f]quinazolin-4-yl]thieno[3,2-c]pyridine-3-carbonitrile], for which the “KRAS^G12D NEA” value on KRAS G12D is recorded as “D (<49% inhibition at 10 μM)”. Besides, at KRAS WT, the “KRAS^WT NEA” value is recorded as “D (<49% inhibition at 10 μM)”.
In the case of `CCc1c(F)ccc2cc(O)cc(-c3cc4nc(OC[C@@]56CCCN5C[C@H](F)C6)nc(N5CCCC6(COC6)C5)c4c4cn(C)nc34)c12` [Example 201, 5-ethyl-6-fluoro-4-[2-methyl-9-(2-oxa-8-azaspiro[3.5]nonan-8-yl)-7-[[(2R,8S)-2-fluoro-1,2,3,5,6,7-hexahydropyrrolizin-8-yl]methoxy]pyrazolo[4,3-f]quinazolin-4-yl]naphthalen-2-ol], the half-inhibitory concentration (IC50) at KRAS G12D is at most 10 nM; at KRAS WT, 100 to 10000 nM.
Consider `C#Cc1c(F)ccc2cc(O)cc(-c3c(C)c4nc(OC[C@@]56CCCN5C[C@H](F)C6)nc(N5CCC[C@@](C)(O)C5)c4c4cn(C)nc34)c12` [Example 184, (3R)-1-[4-(8-ethynyl-7-fluoro-3-hydroxy-1-naphthyl)-2,5-dimethyl-7-[[(2R,8S)-2-fluoro-1,2,3,5,6,7-hexahydropyrrolizin-8-yl]methoxy]pyrazolo[4,3-f]quinazolin-9-yl]-3-methyl-piperidin-3-ol], for which the IC50 against KRAS G12D and on KRAS WT was at most 10 nM in each case.
In the case of `Cc1cc2[nH]ncc2c(-c2c(C)c3nc(OCC45CCCN4CC(F)C5)nc(N4CCOCC(C)(O)C4)c3c3cn(C)nc23)c1Cl` [Example 173, 4-[4-(5-chloro-6-methyl-1H-indazol-4-yl)-2,5-dimethyl-7-[[(2R,8S)-2-fluoro-1,2,3,5,6,7-hexahydropyrrolizin-8-yl]methoxy]pyrazolo[4,3-f]quinazolin-9-yl]-6-methyl-1,4-oxazepan-6-ol], the IC50 is 10 to 100 nM against KRAS G12D and 100 to 10000 nM at KRAS WT.
For the compound `CCc1c(F)ccc2cc(O)cc(-c3c(F)c4nc(OC[C@@]56CCCN5C[C@H](F)C6)cc(N5CCCOCC5)c4c4cn(C)nc34)c12` [Example 45, 5-ethyl-6-fluoro-4-[5-fluoro-2-methyl-9-(1,4-oxazepan-4-yl)-7-[[(2R,8S)-2-fluoro-1,2,3,5,6,7-hexahydropyrrolizin-8-yl]methoxy]pyrazolo[4,3-f]quinolin-4-yl]naphthalen-2-ol], the IC50 against KRAS G12D and at KRAS WT was 100 to 10000 nM throughout.
Take `CCc1c(F)ccc2cc(O)cc(-c3c(F)c4nc(OCC5(CN6CC(O)C(F)(F)C6)CC5)nc(N5CCOCC(C)(O)C5)c4c4cn(C)nc34)c12` (stereo not shown) [Example 237, 4-[7-[[1-[(3,3-difluoro-4-hydroxy-pyrrolidin-1-yl)methyl]cyclopropyl]methoxy]-4-(8-ethyl-7-fluoro-3-hydroxy-1-naphthyl)-5-fluoro-2-methyl-pyrazolo[4,3-f]quinazolin-9-yl]-6-methyl-1,4-oxazepan-6-ol]: at KRAS G12D, the concentration for half-maximal inhibition (IC50) was at most 10 nM.
In turn, `CCc1c(F)ccc2cc(O)cc(-c3c(F)c4nc(OC[C@@H]5CCN5C)nc(N5CCC[C@@](C)(O)C5)c4c4cn(C)nc34)c12` [Example 239, (3R)-1-[4-(8-ethyl-7-fluoro-3-hydroxy-1-naphthyl)-5-fluoro-2-methyl-7-[[(2S)-1-methylazetidin-2-yl]methoxy]pyrazolo[4,3-f]quinazolin-9-yl]-3-methyl-piperidin-3-ol] yielded an IC50 against KRAS G12D of at most 10 nM.
The compound `CCc1c(F)ccc2cc(O)cc(-c3c(C)c4nc(OCC5(CF)COC5)nc(N5CC6CCC(C5)N6)c4c4cn(C)nc34)c12` [Example 247, 4-[9-(3,8-diazabicyclo[3.2.1]octan-3-yl)-7-[[3-(fluoromethyl)oxetan-3-yl]methoxy]-2,5-dimethyl-pyrazolo[4,3-f]quinazolin-4-yl]-5-ethyl-6-fluoro-naphthalen-2-ol] came in with an IC50 at KRAS G12D of at most 10 nM.

(Values after patent US20260347364A1, “PYRAZOLO[4,3-F]QUINAZOLINE DERIVATIVES AS MODULATORS OF G12D MUTANT KRAS USEFUL FOR THE TREATMENT OF CANCER” (JAZZ PHARMACEUTICALS IRELAND LTD., priority 2023, published 2026).)
